Test results taken from patent publication US20130281512A1, “AGENTS FOR TREATING DISORDERS INVOLVING MODULATION OF RYANODINE RECEPTORS” (LES LABORATOIRES SERVIER, priority 2012, published 2013).

Experiments:
PKA-phosphorylated RyR2 = biological target: T1, PKA-phosphorylated RyR2 (Homo sapiens, UniProt Q92736); assay: Calstabin2 rebinding assay: binding of calstabin2 to PKA-phosphorylated RyR2 (cardiac SR, immunoblot); settings: 100 nM compound; immunoblot with calstabin2 antibody
T1 construct: Cardiac SR membranes were prepared as previously described; from tissue; host or cells: cardiac sarcoplasmic reticulum (heart muscle microsomes)
Experimental: Cardiac SR membranes were prepared as previously described (Marx et al., 2000; Kaftan et al., Circ. Res., 1996, 78:990-97). Immunoblotting of microsomes (50 μg) was performed as described, with anti-calstabin antibody (1:1,000) (Jayaraman et al., J. Biol. Chem., 1992, 267:9474-77) for 1 hr at room temperature (Reiken et al., Circulation, 107:2459-66, 2003). After incubation with HRP-labeled anti-rabbit IgG (1:5,000 dilution; Transduction Laboratories, Lexington, Ky.), the blots were developed using ECL (Amersham Pharmacia, Piscataway, N.J.) and detected on x-ray film, or exposed to secondary antibodies labeled with infrared Dye and visualized on equipment from Li-Cor Biosciences (model Odyssey). Unless otherwise stated, compounds were tested at a concentration of 100 nM. A representative calstabin2 binding assay is presented below.
A. PKA phosphorylation of cardiac sarcoplasmic reticulum (CSR)
B. Reaction mixture was set up in 1.5 ml microfuge tube. 200 μg of cardiac SR were added to a reaction mix of kinase buffer, PKA and ATP to a final volume of 100 (Reaction mix below). ATP was added last to initiate the reaction.
20 μl Sample (cardiac SR, 2 or 10 μg/μl) 10 μl=10× Kinase buffer (80 mM MgCl2, 100 mM EGTA, 500 mM Tris/PIPES), pH=7.0
20 μl PKA (2units/ul) (Sigma # P2645)
40 μl=distilled H2O • 1. The tubes were incubated at 30° C. for 30 minutes. • 2. The reaction mix was then transferred to 0.5 ml thick walled glass tubes. • 3. The glass tubes containing the reaction mix were centrifuged for 10 min at 50,000×g in Sorvall Centrifuge RCM120EX using S120AT3 rotor. Centrifugation at 50,000×g for 10 min is sufficient to isolate the microsomes. • 4. The resulting pellet was washed 4 times with binding buffer (10 mM Imidazol 300 mM Sucrose, pH=7.4). Each time 100111 of 1× binding buffer was added to the tube to wash the pellet. The pellet was resuspended by flushing up and down using the pipette tip. After the last spin 501.11 of binding buffer was added and the pellets from all tubes were pooled. The reaction was stored at −20° C. • 5. Phosphorylation was confirmed by separating approximately 10 μg of CSR by 6% Polyacylamide gel electrophoresis (PAGE) and analyzing the immunoblots for both total RyR (5029 Ab, 1:3000 dilution or Monoclonal Ab from Affinity Bioreagents, Cat # MA3-916, 1:2000 dilution) and PKA phosphorylated RyR2 (P2809 Ab, 1:10000 dilution). • 6. Aliquots can be stored at −80 C.
C. Calstabin Rebinding Assay
• 1. PKA-phosphorylated CSR (approximately 20 μg) was incubated with 250 nM Calstabin 2 in 100111 binding buffer (as described above) with or without compounds. • 2. […] Calstabin2 binding was detected with anti-FKBP (Jayaraman et al., J. Biol. Chem. 1992; 267:9474-77, 1:2000) primary antibody and appropriate secondary antibody.

[1] = Metabolic stability in mouse microsomes (% remaining); type: in vitro ADME
Experimental: 0.1M Tris HCl buffer at pH 7.4 containing 5 mM EDTA.
To a 50 mL falcon tube containing 2.79 mL of dilution buffer were added 0.429 mL of NADPH-regenerating soln. A and 0.079 mL of NADPH-regenerating soln. B […]
[…] A 50 mL falcon tube containing 3.32 mL of dilution buffer was prewarmed at 37° C. for 15 min. (at least 10 min.) 0.178 mL of microsome (24.6 mg/mL) were added to the prewarmed dilution buffer. The protein concentration of this microsome preparation was 1.25 mg/mL.
Sample (Test Compound)—Original and Intermediate Stock Solutions:
100 μM intermediate solution of the test compound from the original stock solution were prepared using the dilution buffer. A 5 μM solution was prepared by diluting the 100 μM intermediate solution using dilution buffer.
(The experiments were conducted in 1.5 mL eppendorf micro centrifuge tubes) 0 minutes incubation. Procedure: a. Add 100 μL of prewarmed microsomes b. Add 50 μL of 5 μM solution of the test compound. c. Add 500 μL of cold stop solution (ice cold Methanol) d. Add 100 μL of NADPH cofactor solution to the eppendorf. a. Vortex mix the eppendorf. […]
b. Add 100 μL of NADPH cofactor solution to the eppendorf. c. Add 50 μL of 5 μM solution of the test compound. d. Add 100 μL of prewarmed microsomes e. Incubate the eppendorf at 37° C. 300 rpm for ‘t’ min. on a thermomixer. f. Remove the eppendorf from thermomixer g. Add 500 μL of cold stop solution (ice cold Methanol) h. Vortex mix the eppendorf.
Both the ‘0’ and ‘t’ minutes incubated samples were centrifuged at 15, 000 rcf at 4° C. for 15 min. 500 μL of the supernatant solution was removed and subject it to LC/MS analysis (SIM—Selected Ion Monitoring) […]
Results are expressed as % test compound remaining=(MS Area response of T min sample/MS Area response of ‘0’ min sample)*100. The MS area used is an average of duplicate injections.
Time points=0, 15, 30 and 60 min. for each test compound
2 μM Imipramine—5 min. and 2 μM Imipramine—15 min. incubation was used as a positive control for the rat and mouse liver microsome stability experiments.

T1 sequence (Q92736 whole entry): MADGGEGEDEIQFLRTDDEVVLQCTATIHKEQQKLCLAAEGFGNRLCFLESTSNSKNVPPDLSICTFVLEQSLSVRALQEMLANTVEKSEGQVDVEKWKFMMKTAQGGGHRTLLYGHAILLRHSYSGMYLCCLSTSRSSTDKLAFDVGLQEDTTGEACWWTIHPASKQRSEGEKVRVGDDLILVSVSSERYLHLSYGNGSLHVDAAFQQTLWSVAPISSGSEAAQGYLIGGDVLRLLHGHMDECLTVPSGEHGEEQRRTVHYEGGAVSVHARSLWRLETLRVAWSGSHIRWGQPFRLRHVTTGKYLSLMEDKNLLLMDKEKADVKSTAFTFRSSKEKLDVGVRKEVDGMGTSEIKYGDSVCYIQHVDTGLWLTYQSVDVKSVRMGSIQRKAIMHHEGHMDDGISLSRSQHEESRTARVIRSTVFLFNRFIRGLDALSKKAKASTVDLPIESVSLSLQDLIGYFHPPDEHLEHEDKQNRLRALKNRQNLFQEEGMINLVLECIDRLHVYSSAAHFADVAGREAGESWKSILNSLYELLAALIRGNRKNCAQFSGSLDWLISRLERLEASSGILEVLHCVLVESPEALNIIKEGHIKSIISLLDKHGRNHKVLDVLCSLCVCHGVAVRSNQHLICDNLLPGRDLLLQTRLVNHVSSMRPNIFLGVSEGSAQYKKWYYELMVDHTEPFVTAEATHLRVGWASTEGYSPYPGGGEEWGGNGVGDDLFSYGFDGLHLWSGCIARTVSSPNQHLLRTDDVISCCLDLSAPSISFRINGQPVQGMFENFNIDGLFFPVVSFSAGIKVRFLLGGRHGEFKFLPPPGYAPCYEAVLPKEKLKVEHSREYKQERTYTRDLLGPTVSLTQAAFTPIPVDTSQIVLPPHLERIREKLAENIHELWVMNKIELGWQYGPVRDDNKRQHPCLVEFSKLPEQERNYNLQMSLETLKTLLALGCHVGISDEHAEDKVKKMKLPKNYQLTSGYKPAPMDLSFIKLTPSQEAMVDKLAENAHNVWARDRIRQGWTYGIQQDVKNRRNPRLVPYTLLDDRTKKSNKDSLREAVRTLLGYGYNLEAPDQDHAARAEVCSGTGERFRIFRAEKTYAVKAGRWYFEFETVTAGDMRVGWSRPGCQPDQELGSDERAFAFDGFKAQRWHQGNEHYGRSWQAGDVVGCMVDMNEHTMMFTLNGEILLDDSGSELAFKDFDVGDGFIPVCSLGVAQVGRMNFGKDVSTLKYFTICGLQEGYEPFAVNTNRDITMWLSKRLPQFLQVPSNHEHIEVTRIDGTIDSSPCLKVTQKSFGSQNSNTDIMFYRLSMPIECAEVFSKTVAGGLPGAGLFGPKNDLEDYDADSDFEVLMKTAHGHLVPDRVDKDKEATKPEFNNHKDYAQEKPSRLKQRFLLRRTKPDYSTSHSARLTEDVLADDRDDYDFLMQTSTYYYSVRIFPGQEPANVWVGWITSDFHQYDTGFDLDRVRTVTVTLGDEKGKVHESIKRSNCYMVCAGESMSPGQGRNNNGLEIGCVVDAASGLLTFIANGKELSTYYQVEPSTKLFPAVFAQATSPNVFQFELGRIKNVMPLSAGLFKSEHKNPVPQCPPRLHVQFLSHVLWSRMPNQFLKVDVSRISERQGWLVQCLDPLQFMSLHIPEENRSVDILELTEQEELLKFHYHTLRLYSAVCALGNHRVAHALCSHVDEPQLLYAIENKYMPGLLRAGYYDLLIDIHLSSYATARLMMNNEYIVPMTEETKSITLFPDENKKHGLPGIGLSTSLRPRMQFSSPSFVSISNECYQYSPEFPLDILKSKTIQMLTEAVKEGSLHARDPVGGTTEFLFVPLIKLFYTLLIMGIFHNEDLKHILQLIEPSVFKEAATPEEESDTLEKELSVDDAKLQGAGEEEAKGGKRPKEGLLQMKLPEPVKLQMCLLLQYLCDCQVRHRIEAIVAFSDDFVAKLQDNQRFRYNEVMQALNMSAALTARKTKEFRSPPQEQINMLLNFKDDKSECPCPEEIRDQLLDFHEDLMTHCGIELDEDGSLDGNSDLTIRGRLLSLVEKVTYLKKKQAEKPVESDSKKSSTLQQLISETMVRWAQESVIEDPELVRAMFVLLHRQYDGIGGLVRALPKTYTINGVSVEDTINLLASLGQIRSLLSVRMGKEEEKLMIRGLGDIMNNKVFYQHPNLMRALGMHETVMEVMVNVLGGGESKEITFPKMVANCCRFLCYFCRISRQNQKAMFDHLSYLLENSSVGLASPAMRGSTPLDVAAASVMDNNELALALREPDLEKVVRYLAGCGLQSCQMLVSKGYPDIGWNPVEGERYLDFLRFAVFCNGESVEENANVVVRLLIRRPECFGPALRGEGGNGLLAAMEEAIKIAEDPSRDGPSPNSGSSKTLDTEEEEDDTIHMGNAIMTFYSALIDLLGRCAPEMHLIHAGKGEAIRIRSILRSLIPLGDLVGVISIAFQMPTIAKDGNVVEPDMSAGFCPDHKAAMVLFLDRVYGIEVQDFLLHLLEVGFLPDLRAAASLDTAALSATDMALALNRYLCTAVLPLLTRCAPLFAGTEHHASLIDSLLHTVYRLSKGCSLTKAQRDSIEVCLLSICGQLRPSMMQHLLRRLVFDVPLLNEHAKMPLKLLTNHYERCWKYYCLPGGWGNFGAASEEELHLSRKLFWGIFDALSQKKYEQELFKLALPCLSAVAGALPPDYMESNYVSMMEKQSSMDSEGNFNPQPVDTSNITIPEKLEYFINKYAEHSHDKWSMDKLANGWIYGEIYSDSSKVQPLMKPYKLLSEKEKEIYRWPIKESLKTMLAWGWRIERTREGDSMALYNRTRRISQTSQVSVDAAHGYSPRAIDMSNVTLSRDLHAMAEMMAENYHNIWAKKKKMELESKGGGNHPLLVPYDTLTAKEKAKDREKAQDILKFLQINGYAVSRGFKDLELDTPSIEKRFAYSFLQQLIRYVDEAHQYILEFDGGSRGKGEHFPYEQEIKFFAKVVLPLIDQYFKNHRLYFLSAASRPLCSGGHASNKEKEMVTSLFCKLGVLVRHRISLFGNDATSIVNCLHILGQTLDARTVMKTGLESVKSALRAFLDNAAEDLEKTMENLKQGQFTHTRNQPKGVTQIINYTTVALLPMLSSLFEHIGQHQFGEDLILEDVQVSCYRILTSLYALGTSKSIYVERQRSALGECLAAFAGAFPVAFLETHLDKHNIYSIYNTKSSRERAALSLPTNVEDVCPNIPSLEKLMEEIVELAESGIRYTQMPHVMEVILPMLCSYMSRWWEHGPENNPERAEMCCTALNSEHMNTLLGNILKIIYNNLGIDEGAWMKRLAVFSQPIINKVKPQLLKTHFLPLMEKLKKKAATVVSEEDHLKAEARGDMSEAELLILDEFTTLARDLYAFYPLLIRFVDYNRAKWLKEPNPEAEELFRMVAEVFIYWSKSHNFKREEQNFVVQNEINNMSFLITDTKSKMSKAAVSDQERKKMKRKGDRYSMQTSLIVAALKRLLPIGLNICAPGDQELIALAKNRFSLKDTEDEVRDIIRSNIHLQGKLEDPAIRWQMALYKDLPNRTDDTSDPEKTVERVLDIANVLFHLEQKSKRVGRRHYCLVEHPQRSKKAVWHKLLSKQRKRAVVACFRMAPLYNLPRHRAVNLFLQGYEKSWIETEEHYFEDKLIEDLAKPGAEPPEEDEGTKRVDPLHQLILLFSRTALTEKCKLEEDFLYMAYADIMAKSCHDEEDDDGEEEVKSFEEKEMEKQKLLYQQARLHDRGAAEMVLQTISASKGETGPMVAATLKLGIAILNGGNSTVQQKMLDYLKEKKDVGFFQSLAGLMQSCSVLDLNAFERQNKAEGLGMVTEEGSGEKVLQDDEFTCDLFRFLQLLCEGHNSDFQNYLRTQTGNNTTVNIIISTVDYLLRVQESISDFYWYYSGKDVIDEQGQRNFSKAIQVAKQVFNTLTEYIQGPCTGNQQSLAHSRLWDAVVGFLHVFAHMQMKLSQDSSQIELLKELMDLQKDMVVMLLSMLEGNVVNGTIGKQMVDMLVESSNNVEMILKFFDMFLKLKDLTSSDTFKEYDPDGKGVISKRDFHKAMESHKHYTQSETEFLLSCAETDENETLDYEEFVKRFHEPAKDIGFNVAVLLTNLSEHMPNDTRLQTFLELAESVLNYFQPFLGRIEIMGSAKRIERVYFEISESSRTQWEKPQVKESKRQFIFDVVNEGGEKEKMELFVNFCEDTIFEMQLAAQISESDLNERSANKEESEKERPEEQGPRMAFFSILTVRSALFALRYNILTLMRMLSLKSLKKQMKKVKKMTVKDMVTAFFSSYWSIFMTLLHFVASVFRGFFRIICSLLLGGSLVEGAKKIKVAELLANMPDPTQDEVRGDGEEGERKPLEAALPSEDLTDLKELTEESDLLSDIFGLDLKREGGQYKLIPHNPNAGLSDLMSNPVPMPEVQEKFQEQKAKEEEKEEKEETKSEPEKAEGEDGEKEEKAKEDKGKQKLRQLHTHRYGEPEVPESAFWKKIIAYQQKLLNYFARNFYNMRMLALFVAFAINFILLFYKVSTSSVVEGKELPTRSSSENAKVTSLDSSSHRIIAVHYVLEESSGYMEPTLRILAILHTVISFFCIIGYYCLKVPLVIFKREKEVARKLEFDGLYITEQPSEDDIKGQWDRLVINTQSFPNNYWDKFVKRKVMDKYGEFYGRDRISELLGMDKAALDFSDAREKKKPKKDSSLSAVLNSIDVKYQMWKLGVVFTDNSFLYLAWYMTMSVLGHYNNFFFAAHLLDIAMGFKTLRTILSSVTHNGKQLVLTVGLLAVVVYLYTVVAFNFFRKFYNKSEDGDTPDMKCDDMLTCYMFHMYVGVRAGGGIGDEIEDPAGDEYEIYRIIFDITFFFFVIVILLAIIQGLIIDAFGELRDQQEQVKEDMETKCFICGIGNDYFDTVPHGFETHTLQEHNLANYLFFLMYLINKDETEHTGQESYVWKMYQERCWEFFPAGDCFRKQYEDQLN
T1 sequence (P68106 whole entry partner): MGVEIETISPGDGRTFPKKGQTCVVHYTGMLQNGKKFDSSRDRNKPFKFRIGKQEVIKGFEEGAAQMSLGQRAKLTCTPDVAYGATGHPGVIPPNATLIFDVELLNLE

COc1ccc2c(c1)CN(Cc1ccc(C(=O)O)cc1)CCS2 [Compound 1, 4-((7-Methoxy-2,3-dihydrobenzo[f][1,4]thiazepin-4(5H)-yl)methyl)benzoic acid]
binding of calstabin2 to PKA-phosphorylated RyR2 (PKA-phosphorylated RyR2): prevented the dissociation of calstabin2 from PKA-phosphorylated RyR2 and/or enhanced the (re)binding of calstabin2 to PKA-phosphorylated RyR
% remaining ([1]; 15 min): 99%
% remaining ([1]; 30 min): 98%
% remaining ([1]; 1 h): 82%
